Test results as given in patent publication US20240158369A1, “PYRIMIDINE COMPOUND AS WEE-1 INHIBITOR” (WIGEN BIOMEDICINE TECHNOLOGY (SHANGHAI) CO., LTD., priority 2021, published 2024).
Read-outs that look alike come from different tables or passages of the source.

Legend:
[1] = target: recombinant protein Wee-1 (Homo sapiens (Human), UniProt P30291); assay: HTRF assay for inhibiting enzymatic activity of recombinant protein Wee-1; type: biochemical; details: compounds up to 200 nM, read-out: (IC50) Inhibitory activity against recombinant protein Wee-1
Sequence of recombinant protein Wee-1 (P30291 whole entry): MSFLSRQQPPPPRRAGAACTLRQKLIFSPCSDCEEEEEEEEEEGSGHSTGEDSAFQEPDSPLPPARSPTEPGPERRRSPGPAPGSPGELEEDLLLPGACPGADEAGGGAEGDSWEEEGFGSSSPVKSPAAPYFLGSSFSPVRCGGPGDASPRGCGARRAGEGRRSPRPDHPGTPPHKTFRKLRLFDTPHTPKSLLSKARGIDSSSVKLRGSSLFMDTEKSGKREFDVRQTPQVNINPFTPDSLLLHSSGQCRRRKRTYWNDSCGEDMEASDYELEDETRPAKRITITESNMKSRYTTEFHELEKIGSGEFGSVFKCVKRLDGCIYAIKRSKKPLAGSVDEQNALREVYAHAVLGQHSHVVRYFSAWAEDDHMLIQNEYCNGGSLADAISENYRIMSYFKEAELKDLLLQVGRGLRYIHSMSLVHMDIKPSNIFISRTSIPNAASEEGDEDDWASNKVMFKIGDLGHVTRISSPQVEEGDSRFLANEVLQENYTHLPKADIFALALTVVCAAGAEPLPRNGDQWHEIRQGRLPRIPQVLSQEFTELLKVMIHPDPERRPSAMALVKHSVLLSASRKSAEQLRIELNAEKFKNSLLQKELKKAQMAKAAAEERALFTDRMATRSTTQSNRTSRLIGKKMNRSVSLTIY
Protocol: The inhibitory effect of the compounds on the enzyme activity of recombinant protein Wee-1 was determined by HTRF. The procedures are as follows:
After DMSO or serially diluted compounds (up to 200 nM, 1:5 diluted) and recombinant proteins were co-incubated in a kinase buffer at 37° C. for 30 min before Fluorescein-PolyGAT and ATP were added, and the reaction was initiated by addition of a substrate. After incubation at room temperature for 90 min, an antibody and a detection solution were added, and after further incubation at room temperature for 60 min, fluorescence values were detected (excitation wavelength: 340 nm, emission wavelengths: 495 and 520 nm). The 520 nm/495 nm fluorescence intensity ratio value was calculated, and compared with that of the DMSO group, and then the inhibition percentages and IC50 values of the compounds were calculated.

MIA PaCa-2 cells = assay: In-vitro anti-proliferative activity in combination with gemcitabine on MIA PaCa-2 cells; type: cell-based; details: 72 h
Protocol: MIA PaCa-2 cells were seeded on a 384-well plate at 3000 cells/well, and 20 nM or 200 nM gemcitabine (GMC) was added. After overnight adherence culture, DMSO or the compounds serially 1:5-diluted from 100 nM were added. The viability was assessed 72 h after dosing by measuring the intracellular ATP content. The inhibition percentage of viable cells by the compounds was calculated by comparing with the DMSO group, and the IC50 value was calculated.

[2] = with 20 nM gemcitabine, read-out: in combination with 20 nM GMC IC50
[3] = with 200 nM gemcitabine, read-out: in combination with 200 nM GMC IC50

SMILES	IC50 [1] [nM]	IC50 (MIA PaCa-2 cells; [2]) [nM]	IC50 (MIA PaCa-2 cells; [3]) [nM]
CN1CCc2ccc(Nc3ncc(S(C)(=O)=O)c(Nc4cccc(N=S(C)(C)=O)n4)n3)cc2C1 [Compound 5]	> 50	> 100	
CN1CCc2ccc(Nc3ncc(C(N)=O)c(Nc4cccc(N=S(C)(C)=O)n4)n3)cc2C1 [Compound 6]	> 50	> 100	
CNC(=O)c1cnc(Nc2ccc3c(c2)CN(C)CC3)nc1Nc1cccc(N=S(C)(C)=O)n1 [Compound 7]	> 50	> 100	
CN1CCc2ccc(Nc3ncc(C(=O)N(C)C)c(Nc4cccc(N=S(C)(C)=O)n4)n3)cc2C1 [Compound 8]	> 50	> 100	
CN1CCc2ccc(Nc3ncc(-c4ccco4)c(Nc4cccc(N=S(C)(C)=O)n4)n3)cc2C1 [Compound 9]	> 50	> 100	
CN1CCc2ccc(Nc3ncc(-c4cn[nH]c4)c(Nc4cccc(N=S(C)(C)=O)n4)n3)cc2C1 [Compound 10]	> 50	> 100	
CN1CCc2ccc(Nc3ncc(Br)c(Nc4cccc(N=S(C)(C)=O)n4)n3)cc2C1 [Compound 11]	≤ 10	16	
Cc1cc(Nc2ncc(C#N)c(Nc3cccc(N=S(C)(C)=O)n3)n2)cc2c1CCN(C)C2 [Compound 12]	≤ 10	1.4	
C=C(C)c1cc(Nc2ncc(C#N)c(Nc3cccc(N=S(C)(C)=O)n3)n2)cc2c1CCN(C)C2 [Compound 15]	≤ 10	1.8	
CN1CCc2c(cc(Nc3ncc(C#N)c(Nc4cccc(N=S(C)(C)=O)n4)n3)cc2C2=CCCC2)C1 [Compound 17]	≤ 10	11	
CN1CCc2c(cc(Nc3ncc(C#N)c(Nc4cccc(N=S(C)(C)=O)n4)n3)cc2N2CCCC2)C1 [Compound 19]	≤ 10		640
CN1CCc2c(cc(Nc3ncc(C#N)c(Nc4cccc(N=S(C)(C)=O)n4)n3)cc2C(F)(F)F)C1 [Compound 20]	≤ 10	25	
COc1cc(Nc2ncc(C#N)c(Nc3cccc(N=S(C)(C)=O)n3)n2)cc2c1CCN(C)C2 [Compound 22]	≤ 10		1.2
CN1CCc2c(F)cc(Nc3ncc(C#N)c(Nc4cccc(N=S(C)(C)=O)n4)n3)cc2C1 [Compound 25]	≤ 10	18.6	
CN1CCc2c(I)cc(Nc3ncc(C#N)c(Nc4cccc(N=S(C)(C)=O)n4)n3)cc2C1 [Compound 28]	≤ 10	14.5	
CN1Cc2cc(Nc3ncc(C#N)c(Nc4cccc(N=S(C)(C)=O)n4)n3)ccc2C2(CC2)C1 [Compound 29]	≤ 10	3.7	
CN1CCc2c(C#N)cc(Nc3ncc(C#N)c(Nc4cccc(N=S(C)(C)=O)n4)n3)cc2C1 [Compound 41]	10 to 50		> 100
C=Cc1cc(Nc2ncc(C#N)c(Nc3cccc(N=S(C)(C)=O)n3)n2)cc2c1CCN(C)C2 [Compound 42]	≤ 10		10
C#Cc1cc(Nc2ncc(C#N)c(Nc3cccc(N=S(C)(C)=O)n3)n2)cc2c1CCN(C)C2 [Compound 43]	≤ 10	21.2	
CN(C)C1CCc2ccc(Nc3ncc(C#N)c(Nc4cccc(N=S(C)(C)=O)n4)n3)cc2CC1 (centres unmarked) [Compound 52]	≤ 10	4.5	
CN1CCc2ccc(Nc3ncc(C#N)c(Nc4cccc(N=S(C)(C)=O)n4)n3)cc2CC1 [Compound 55]	≤ 10	11.3	
CN(C)C1Cc2ccc(Nc3ncc(C#N)c(Nc4cccc(N=S(C)(C)=O)n4)n3)cc2C1 (centres unmarked) [Compound 60]	≤ 10	10.3	
CN1CCc2c(cc(Nc3ncc(C#N)c(Nc4ccc(F)c(N=S(C)(C)=O)n4)n3)cc2N2CCC2)C1 [Compound 96]	≤ 10		
CN1CCc2c(cc(Nc3ncc(C#N)c(Nc4ccc(F)c(N=S(C)(C)=O)n4)n3)cc2C2CCC2)C1 [Compound 98]	≤ 10		
CN1CCc2c(cc(Nc3ncc(C#N)c(Nc4ccc(F)c(N=S(C)(C)=O)n4)n3)cc2C2CCCC2)C1 [Compound 99]	≤ 10		

SMILES	IC50 [1] [nM]	IC50 (MIA PaCa-2 cells; [2]) [nM]	IC50 (MIA PaCa-2 cells; [3]) [nM]
CN1CCc2c(cc(Nc3ncc(C#N)c(Nc4ccc(F)c(N=S(C)(C)=O)n4)n3)cc2C2=CCCC2)C1 [Compound 100]	≤ 10		
CN1CCc2c(cc(Nc3ncc(C#N)c(Nc4ccc(F)c(N=S(C)(C)=O)n4)n3)cc2C2(C)CC2)C1 [Compound 102]	≤ 10		
CN1CCc2ccc(Nc3ncc(C#N)c(Nc4cccc(N=S(C)(C)=O)n4)n3)cc2C12CC2 [Compound 103]	≤ 10		
CN1CCc2ccc(Nc3ncc(C#N)c(Nc4cccc(N=S(C)(C)=O)n4)n3)cc2C1(C)C [Compound 104]	≤ 10		
CN1CCc2c(cc(Nc3ncc(C#N)c(Nc4cccc(N=S(C)(C)=O)n4)n3)cc2-c2ccoc2)C1 [Compound 114]	≤ 10		
CN1CCc2c(CC3CCC3)cc(Nc3ncc(C#N)c(Nc4cccc(N=S(C)(C)=O)n4)n3)cc2C1 [Compound 125]	≤ 10		
CN1CCc2c(cc(Nc3ncc(C#N)c(Nc4cccc(N=S(C)(C)=O)n4)n3)cc2-c2ccncc2)C1 [Compound 126]	≤ 10		
CN1CCc2c(CCO)cc(Nc3ncc(C#N)c(Nc4cccc(N=S(C)(C)=O)n4)n3)cc2C1 [Compound 132]	≤ 10		
CN1CCc2c(CN)cc(Nc3ncc(C#N)c(Nc4cccc(N=S(C)(C)=O)n4)n3)cc2C1 [Compound 134]	≤ 10		
CN1CCc2c(CCN)cc(Nc3ncc(C#N)c(Nc4cccc(N=S(C)(C)=O)n4)n3)cc2C1 [Compound 135]	≤ 10		
CN1CCc2c(CCCN)cc(Nc3ncc(C#N)c(Nc4cccc(N=S(C)(C)=O)n4)n3)cc2C1 [Compound 136]	≤ 10		
CN1CCc2c(cc(Nc3ncc(C#N)c(Nc4cncc(N=S(C)(C)=O)n4)n3)cc2C2CC2)C1 [Compound 138]	≤ 10		
CN1CCc2c(cc(Nc3ncc(C#N)c(Nc4nccc(N=S(C)(C)=O)n4)n3)cc2C2CC2)C1 [Compound 139]	≤ 10		
CN1CCc2c(cc(Nc3ncc(C#N)c(Nc4ccnc(N=S(C)(C)=O)n4)n3)cc2C2CC2)C1 [Compound 140]	≤ 10		
CCc1cc(Nc2ncc(C#N)c(Nc3cccc(N=S(C)(C)=O)n3)n2)cc2c1CCN(CC)C2 [Compound 141]	≤ 10		
CCc1cc(Nc2ncc(C#N)c(Nc3cncc(N=S(C)(C)=O)n3)n2)cc2c1CCN(C)C2 [Compound 142]	≤ 10		
CCc1cc(Nc2ncc(C#N)c(Nc3nccc(N=S(C)(C)=O)n3)n2)cc2c1CCN(C)C2 [Compound 143]	≤ 10		
CCc1cc(Nc2ncc(C#N)c(Nc3ccnc(N=S(C)(C)=O)n3)n2)cc2c1CCN(C)C2 [Compound 144]	≤ 10		
CCCc1cc(Nc2ncc(C#N)c(Nc3cccc(N=S(C)(C)=O)n3)n2)cc2c1CCN(C)C2 [Compound 149]	≤ 10		
CCc1cc(Nc2ncc(C#N)c(Nc3cccc(N=S(C)(C)=O)n3)n2)cc2c1CCNC2 [Compound 151]	≤ 10		
CCc1cc(Nc2ncc(C#N)c(Nc3cccc(N=S(C)(=O)CC)n3)n2)cc2c1CCN(C)C2 (centres unmarked) [Compound 157]	≤ 10		
CCc1cc(Nc2ncc(C#N)c(Nc3cccc(N=S(=O)(CC)CC)n3)n2)cc2c1CCN(C)C2 [Compound 158]	≤ 10		
CCc1cc(Nc2ncc(C#N)c(Nc3cccc(N=S4(=O)CCC4)n3)n2)cc2c1CCN(C)C2 [Compound 159]	≤ 10		
CCc1cc(Nc2ncc(C#N)c(Nc3cccc(N=S4(=O)CCCC4)n3)n2)cc2c1CCN(C)C2 [Compound 160]	≤ 10		
